We go through 7 molecules from patent US5679644A, “Methods of treating diseases using triterpenoid acid derivatives” (Glycomed Incorporated, priority 1995, dated 1997).

Several values for one entry are separate records, joined by “and”; a condition that tells them apart may be missing. Equal values may be shown once. Entries after “also recorded” stand apart in the source; their conditions may differ. Bounds are passed on as bounds.

For data set [1] the following is noted: J. Med. Chem. (1974) 17(2):184-191; cited from earlier work.
Data set [2] addresses T1, 5-Lipoxygenase (Rattus norvegicus, UniProt P12527).
T1 construct: crude enzyme preparation from rat basophilic leukemia cells (RBL-1); endogenous in cells; host or cells: RBL-1 (rat basophilic leukemia cells)
T1 sequence (P12527 1-673): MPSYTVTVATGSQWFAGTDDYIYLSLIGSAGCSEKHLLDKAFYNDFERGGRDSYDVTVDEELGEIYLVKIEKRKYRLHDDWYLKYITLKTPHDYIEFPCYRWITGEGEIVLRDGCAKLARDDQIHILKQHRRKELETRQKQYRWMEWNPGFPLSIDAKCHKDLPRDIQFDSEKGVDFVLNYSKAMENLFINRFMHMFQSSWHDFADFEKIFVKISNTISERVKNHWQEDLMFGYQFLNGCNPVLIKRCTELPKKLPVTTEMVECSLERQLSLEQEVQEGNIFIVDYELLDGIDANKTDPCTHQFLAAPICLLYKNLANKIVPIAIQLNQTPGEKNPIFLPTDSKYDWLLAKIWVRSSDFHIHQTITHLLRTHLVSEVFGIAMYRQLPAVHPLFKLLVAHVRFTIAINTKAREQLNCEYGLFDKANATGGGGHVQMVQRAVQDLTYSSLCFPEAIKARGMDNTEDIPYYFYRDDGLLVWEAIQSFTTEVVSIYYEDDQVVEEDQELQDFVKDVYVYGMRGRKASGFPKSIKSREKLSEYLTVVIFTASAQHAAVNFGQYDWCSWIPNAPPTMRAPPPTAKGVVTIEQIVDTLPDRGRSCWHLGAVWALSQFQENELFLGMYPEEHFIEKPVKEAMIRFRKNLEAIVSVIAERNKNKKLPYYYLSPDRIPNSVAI
The experiment in a line: Inhibition of 5-Lipoxygenase, crude enzyme preparation from rat basophilic leukemia cells (RBL-1). It is filed as biochemical. On the procedure:
Thus, compounds that inhibit 5-lipoxygenase will have significant medical applications that require regulating or lowering leukotriene levels. Thus, the compounds of the instant invention were assayed for their capacity to inhibit 5-lipoxygenase. 5-Lipoxygenase assays were run using a crude enzyme preparation from rat basophilic leukemia cells (RBL-1) ([…]. and Samuelsson, B. Proc. Natl. Acad. Sci. […] W. and […]. Biol. Chem. (1985) 260:11554-11559). Test compounds were pre-incubated with the enzyme for 5 minutes at room temperature and the reaction is initiated by addition of substrate, […]. Following an 8 minute incubation at room temperature, the reaction was terminated by addition of NaOH, and absorbance read at 234 nm to determine levels of 5-HETE. Compounds were screened at 50 μM.

In data set [3] the test system is E-Selectin. Briefly: E-Selectin chimera binding to fixed LS174T colon carcinoma cells. The class given is cell-based. The following applies: for IC50: lowest concentration from serial two-fold dilutions which inhibits by 50% or more relative to control, range, read-out: IC50 of Compound in Assay of E-Selectin Binding To Fixed LS174T Colon Carcinoma Cells (Range); for interference with cancer cell binding to E-selectin (in words): LS174T colon carcinoma cells. On the procedure:
Experiments were conducted to determine the capacity of the invention compounds to interfere with the binding of cancer cells to E-selectin. The compounds were dissolved in dimethylformamide (DMF) prior to being assayed. […] The mixture was rotated briskly on a rotary platform at room temperature for 30-60 minutes. Particulate matter was then removed by centrifugation, and the soluble fraction was transferred onto 96-well microtiter plates containing glutaraldehyde fixed LS174T colon carcinoma cells. […] Plates were developed in the dark and read at 405 nm. […] DMF (vehicle) typically had no effect. […] For all but 18-beta-glycyrrhetinic acid the compounds had low IC50 values, thus indicating their suitability for the treatment or prevention of certain forms of metastatic cancers.

Data set [4] relates to arachidonic acid-induced ear swelling. The experiment in a line: Arachidonic acid (AA) murine skin (ear) inflammation model, topical administration. The settings on record: for anti-inflammatory activity (in words): arachidonic acid murine skin inflammation model. It is filed as in vivo. How it is done:
Using the arachidonic acid (AA), murine skin inflammation model, described by Harris, R. R. et al. (Skin Pharmacol (1990) 3:2940) the anti-inflammatory activity of 1-[3-O-(18-β-Glycyrrhetinic acid)]-2-(α-L-C-methylfucopyranose)-2',3'-propanediol (5) was tested. For comparison, 18-β-glycyrrhetinic acid was also tested. All compounds were dissolved at 100 mg/mL in methanol or chloroform (18-β-glycyrrhetinic acid) except compound (5) which was at 0.80 mg/mL. 10 μL of each compound was applied to the ear. AA was applied alone, or followed immediately with 1-[3-O-(18-β-Glycyrrhetinic acid)]-2-(α-L-C-methylfucopyranose)-2',3'-propanediol (5) or 18-β-glycyrrhetinic acid. 90 minutes later a 6 mm disk of each ear was removed and weighed.

The test system of data set [5] is P-selectin. The experiment in a line: P-selectin binding to HL-60 cells. It is filed as cell-based. The following applies: HL-60 assay; for IC50: P-selectin 200 ng/ml, read-out: IC50 for interfering with P-selectin binding to HL-60 cells. On the procedure: (§1) In addition to E-selectin binding, certain of the invention compounds were tested for their capacity to inhibit P-selectin binding to cancer cells, and to a chemical known to bind to P-selectin, 2,3 sLex. The following materials and procedures were used.
(§2) Compound Preparation. Compound (5) of Example 5, and compound (8) of Example 8 were solubilized in DMF to yield a 100 mM solution.
(§3) P-Selectin Detection Solutions. Goat F(ab')2 anti-human IgG (Fc spec.)biotin and streptavidin-AP were diluted 1:1000 in 1% BSA-TBS with 1 mM Ca. An Elisa assay was utilized to measure P-selectin binding to 2,3 sLex, and P-selectin was added at 300 ng/ml. An Elisa assay was also used to assay for the capacity of the invention compounds to inhibit cancer cell binding to P-selectin. HL-60 cancer cells were used, and P-selectin was added at 200 ng/ml.
(§4) Plate Preparation. 2,3 sLex was coated at 30 pmoles/well to Probind microtiter plates for Elisa. The glycolipid was added at 50 μl/well in 50% MeOH and allowed to evaporate overnight. Elisa plates and HL-60 assay plates were blocked with 5% BSA-TBS Ca^++ for more than an hour at room temperature. The plates were washed with TBS without Ca^++.
Cell Preparation. HL-60 cells were harvested by centrifugation, washed with TBS no Ca^++, counted, and the density adjusted to 2×10^6 /ml in 1% BSA-TBS Ca^++.
(§5) Assay. Briefly, the assays were conducted as follows. Compounds (5) and (8) were added to P-selectin detection solutions at 4, 2, 1, 0.5, 0.25 and 0.125 mM for the HL-60 based assay, and at 2, 1, 0.5, 0.25, 0.125 and 0.063 mM for the assay involving 2,3 sLex. DMF solutions were added directly to 1% BSA/TBS-Ca for dilutions through 0.5 mM. Lower concentrations were made in serial two-fold dilutions in BSA-TBS. These solutions were incubated at room temperature on a rotating platform for 1 hour, centrifuged to pellet particulate matter, and then added in triplicate for 2,3 sLex coated plates, or quadruplicate for HL-60 cells at 50 μl/well. An equal volume of HL-60 cells was added to wells for the cell based assay. The 2,3 sLex coated plates were incubated at 37° C. for 45 minutes, washed 3× with TBS, and 50 μl of substrate added to each well. Plates with HL-60 cells were incubated at 4° C. for 1 hour, the cells pelleted by centrifugation and washed 3× with TBS. For both assays, substrate was added at 75 μl/well. After color developed to an appropriate intensity, 50 μl/well was transferred to another plate for O.D. determination at 405 nm.

In data set [6] the target is P-selectin. The experiment in a line: Elisa of P-selectin binding to 2,3 sLex. The settings on record: for IC50: Elisa, P-selectin 300 ng/ml, read-out: IC50 for inhibiting P-selectin binding to 2,3 sLex. On the procedure: as §1, §2, §3, §4
as §5, with “Plates with HL-60 cells were incubated at 4° C. for 1 hour, the cells pelleted by centrifugation and washed 3× with TBS. For both assays, substrate was added at 75 μl/well. After color developed to an appropriate intensity, 50 μl/well was transferred to another plate for O.D. determination at 405 nm.” left out

The subject of data set [7] is 5-lipoxygenase. The following applies: Sotomatsu et al. 1959; Inoue et al. 1986; cited from earlier work.

As for `CC1(C)[C@@H](O)CC[C@]2(C)[C@H]3CC=C4[C@@H]5C[C@@](C)(C(=O)O)CC[C@]5(C)CC[C@@]4(C)[C@]3(C)CC[C@@H]12` [11-Deoxoglycyrrhetinic acid], the “aldosterone (DCA)-like activity (in words)” value in data set [1] is “does not substantially show the DCA activity of the parent compound”.
In data set [2], `CC1(C)[C@@H](O)CC[C@]2(C)[C@H]3C(=O)C=C4[C@@H]5C[C@@](C)(C(=O)O)CC[C@]5(C)CC[C@@]4(C)[C@]3(C)CC[C@@H]12` [18-β-glycyrrhetinic acid] displayed an inhibition at 100 µM of 36% and an inhibition at 1000 µM of 81%. In data set [3], the IC50 lay within 125 to 500 µM.
As to `CC(CO[C@H]1CC[C@]2(C)[C@H]3C(=O)C=C4[C@@H]5C[C@@](C)(C(=O)O)CC[C@]5(C)CC[C@@]4(C)[C@]3(C)CC[C@H]2C1(C)C)C[C@@H]1O[C@@H](C)[C@@H](O)[C@@H](O)[C@@H]1O` (stereo partly drawn) [(3), 1-[3-O-(18-β-Glycyrrhetinic acid)]-2-(α-L-C-methylfucopyranose)-propane], the “anti-inflammatory activity (in words)” value in data set [4] is “significant anti-inflammatory activity”. In data set [3], the “interference with cancer cell binding to E-selectin (in words)” value was “markedly lower IC50 values relative to 18-beta-glycyrrhetinic acid” and the IC50 is 60 to 125 µM.
As for `C[C@@H]1O[C@@H](CC(=O)CO[C@H]2CC[C@]3(C)[C@H]4C(=O)C=C5[C@@H]6C[C@@](C)(C(=O)O)CC[C@]6(C)CC[C@@]5(C)[C@]4(C)CC[C@H]3C2(C)C)[C@@H](O)[C@H](O)[C@@H]1O` [(8), 1-[3-O-(18-β-Glycyrrhetinic acid)]-2-oxo-2-(α-L-C-methylfucopyranose)-ethane], the “interference with P-selectin binding to HL-60 cells (in words)” value in data set [5] was “interfered with P-selectin binding to HL-60 cells in a dose dependent way”. Moreover, the IC50 was about 0.75 mM in data set [5], about 125 µM in data set [6] and 60 to 250 µM in data set [3]. For the same molecule, in data set [4], the “anti-inflammatory activity (in words)” value was “activity similar to compounds (3) and (5); also recorded: significant anti-inflammatory activity”.
In data set [2], `C[C@@H]1O[C@@H](CC(O)(CO)CO[C@H]2CC[C@]3(C)[C@H]4C(=O)C=C5[C@@H]6C[C@@](C)(C(=O)O)CC[C@]6(C)CC[C@@]5(C)[C@]4(C)CC[C@H]3C2(C)C)[C@@H](O)[C@H](O)[C@@H]1O` (stereo partly drawn) [Compound (5), 1-[3-O-(18-β-Glycyrrhetinic acid)]-2-(α-L-C-methylfucopyranose)-2',3'-propanediol] had an inhibition at 100 µM of 20% and an inhibition at 1000 µM of 74%. In addition, the “inhibitory activity relative to glycyrrhizin (in words)” value in data set [2] (both concentrations tested) is recorded as “significantly greater inhibitory activity”. In data set [5], the “interference with P-selectin binding to HL-60 cells (in words)” value is “interfered with P-selecting binding to HL-60 cells in a dose dependent manner, but was again less effective than compound (8)” and the IC50 is about 2 mM. Moreover, the “anti-inflammatory activity (in words)” value in data set [4] is given as “significant anti-inflammatory activity”. Besides, in data set [4] (topical, 10 μL of 0.80 mg/mL solution, 90 minutes), the “percent inhibition of swelling caused by AA alone” value is reported as “about 71%”. Also, the “% Inhibition of Swelling” value in data set [4] (topical, arachidonic acid ear model, 800 μg applied) turned out to be 71.3%. For the same molecule, in data set [6], the “inhibition of P-selectin binding to sLex (in words)” value is on record as “did inhibit P-selectin binding to sLex, it was less effective than compound (8)”; the IC50 was < 1000 µM and > 500 µM. Besides, in data set [3], the “interference with cancer cell binding to E-selectin (in words)” value is given as “markedly lower IC50 values relative to 18-beta-glycyrrhetinic acid” and the IC50 was in the range of 60 to 125 µM.
Turning to `CC1(C)[C@@H](O)CC[C@]2(C)[C@H]3C(=O)C=C4[C@@H]5C[C@@](C)(C(=O)O)CC[C@]5(C)CC[C@@]4(C)[C@]3(C)CC[C@@H]12` [Glycyrrhetinic acid], the “inhibition of enzymes involved in leukotriene biosynthesis, including 5-lipoxygenase (in words)” value in data set [7] is “shown to inhibit enzymes involved in leukotriene biosynthesis, including 5-lipoxygenase activity”.
In data set [2], `CC1(C)[C@@H](O[C@H]2O[C@H](C(=O)O)[C@@H](O)[C@H](O)[C@H]2O[C@@H]2O[C@H](C(=O)O)[C@@H](O)[C@H](O)[C@H]2O)CC[C@]2(C)[C@H]3C(=O)C=C4[C@@H]5C[C@@](C)(C(=O)O)CC[C@]5(C)CC[C@@]4(C)[C@]3(C)CC[C@@H]12` [Glycyrrhizin] displayed an inhibition at 100 µM of 9% and an inhibition at 1000 µM of 31%.
